Experimental data: US20100075993A1, “SMALL MOLECULE INHIBITORS AGAINST WEST NILE VIRUS REPLICATION” (DREXEL UNIVERSITY, priority 2005, published 2010)

Key:
[1] = toxicity (MTT, CC50) in BHK cells parallel to WNV infection assay; type: cell-based; details: hamster; highest concentration used 40 μM
Method: (§1) Several of these original compounds selected from the WNV replicon based screen were evaluated in an antiviral assay against WNV live virus. […] Modifications of this compound would be further investigated
(§2) The toxicity of 101-G7 was also measured by MTT assay and CC50 was calculated. 40 μM is highest concentration used.
(§3) Compound toxicity was determined by MTT assay. For the MTT assay, the cell medium was removed and the monolayers were incubated with 100 μl/well of 0.5 mg/ml MTT for 6 h at 37° C. The MTT solution was then aspirated and 100 μl/well of the 10% SDS (in 0.01N HCl) was added, followed by spectrophotometric quantitation (570 nm) of the insoluble MIT reaction product.

BHK cells = assay: as above; type: cell-based; details: MTT assay, 40 μM highest concentration used; read-out: Tox CC50
Method: as §1, §2, §3

WNV replicon = WNV replicon luciferase assay in BHK 26.5 cells (HTS, re-test, IC50); type: cell-based, West Nile virus
Method: Ten micromolar concentrations of a selected compound were incubated with BHK 26.5 cells expressing luciferase whose activity is dependent upon WNV replicon replication (FIG. 1A). Primary “hits” were defined by the ability to reduce the amount of luciferase enzyme activity by more than 50%, compared to controls.
To quantify and rank the activity of the 23 remaining compound “hits”, a serial dilution of each compound was incubated with WNV replicon cells to determine the concentration that inhibits 50% of the luciferase readout (IC50s). […] A number of compounds had significant effect only at the highest, 10 μM concentration. However, several compounds had IC50s between 2 and 5 (Table 3), which is very reasonable for primary HTS hits from a compound library. Only a few compounds could cause 90% inhibition in the replicon cells at the concentrations tested.
(§4) Replicon-harboring cells were plated 96-well plates at 10,000 cells per well in MEM plus 3% FBS. 24 hours after plating, compounds were added to the wells by a Robotic liquid handler (Biomek NX) to a final concentration of 10 μM and 1% DMSO. For each 96 well plate, A1 to A8 were left open, H1 to H4 contained 1% DMSO, H5-H8 contained Mycophenolic acid (Sigma-Aldrich, St. Louis, Mo.), which was included as positive controls. After 24 hours of treatment, the media were removed and the luciferase activity expressed in the replicon cells was quantified. When cyto-toxicity was measured, duplicate 96 well plates were plated with BHK 26.5 replicon cells. One plate was used for luciferase assay and one plate was used for measuring toxicity using MTT assay.
Luciferase assay was performed by using the STEADY GLO reagent (Promega Corp. Madison, Wis.) according to the manufacturer's recommendation with slight modifications. Briefly, the culture media from the 96 wells were removed by dumping on paper towels.
100 μl of a 1:1 mixture of luciferase regent and culture media were added to the plate. After 5-minute incubation, the luminescence was read on a TOPCOUNT (PerkinElmer, Wellesley, Mass.).

BHK 26.5 replicon cells = assay: MTT toxicity assay on BHK 26.5 replicon cells; type: cell-based
Description: The HTS strategy follows the flowchart outlined in FIG. 2. 35,000 compounds were screened from a chemical library described below, using a cutoff of 50% reduction in luminescence readout as the criteria for further study. Upon completion of the screen, approximately 1100 compounds were selected, making the hit rate of 3%. This is considerably higher than expected, implying many false positive and/or cytotoxic compounds. Nevertheless, the compounds were picked out from the “daughter” plates and re-checked at a single 10 μM concentration. In addition, a duplicate 96 well plates were also plated and the toxicity of the compounds was determined in an MTT assay. Upon completion of these assays, most compounds were disqualified as either false positives or being toxicity to cells. As a result, only a small number of compounds were further analyzed directly from the “mother” plate stock. After IC50 determination and secondary assay to rule out luciferase inhibitors, 23 “hits” were identified.
as §4, §3

WNV = WNV yield reduction assay (live virus) on BHK cells; type: cell-based, West Nile virus
Method: The antiviral assay for the 309-F6 compounds was conducted on BHK cells. The virus produced in the presence of 1% DMSO or various concentrations of compounds was tittered on Vero cells. The amount of virus relative to the 1% DMSO control was plotted on the y-axis; the concentration of the compound 309F6 is shown in μM on the x-axis. Data from two independently treated wells (Test 1 and Test 2) are shown.
To measure activity against live WNV, BHK cells were plated in 96-well plates at a concentration of 12,000 cells/well. One day later the cells were infected with WNV for 1 h at an MOI of 0.05. The cells were then washed once and re-fed with fresh DMEM containing dilutions of the test compound. Plates were then incubated at 37° C. for 48 h, the supernatant collected and the WNV produced titered. For virus titration, Vero cells were plated in 96-well plates at 8000 cells/well and incubated overnight. The Vero cell monolayer were then infected for 1 h with various dilutions of the WNV supernatant, overlaid with media containing 0.6% tragacanth (ICN, CA) and incubated at 37° C. for 48 h. The culture media was then aspirated; the plate was rinsed, air-dried, and fixed with 50 μl/well acetone/methanol (50:50). Viral foci were detected for enumeration by immunostaining as described previously (15).

WNV NS3 protein = assay: Western blot of WNV protein in compound treated replicon cells; type: cell-based, West Nile virus; details: 48-hour treatment, up to 10 uM; MPA 2.5 ug/ml
Method: Mycophenolic acid (MPA) was used as positive control in the experiment. 4×10^4 cells were seeded in 24 well plates 24 hours before the various concentrations of compounds were added. After 48 hours of drug treatment, SDS-Sample buffer were added to the wells to lyse the cells. The protein samples were separated on SDS-PAGE and transferred to PVDF membrane. Viral protein was detected by probing with a monoclonal antibody against WNV. The same membrane was stripped and probed for beta-actin with the signals shown at the bottom of the blot.
Although it is reassuring that multiple tests have yielded similar positive results, the ability of the compounds to inhibit WNV replication was further assessed in secondary assays. In the western blot analysis shown in FIG. 5, total cell proteins were prepared from WNV replicon cells treated with the hit compounds and the viral protein NS3 was detected with a monoclonal […] against West Nile virus (15). The same blots were stripped and probed for beta-actin to show equal loading. […] When compared with the IC50 determined for these compounds in the luciferase assay, there was a good correlation between the luciferase reduction and the viral protein reduction.
Total cell lysates from replicon cells were harvested from replicon cells in 1×SDS sample buffer. The lysates were heated at 70° C. for 10 min in the presence of DTT before electrophoresis on a 10% Tris-glycine SDS polyacrylamide gel (Invitrogen) in 1× Tris-glycine buffer. The protein was transferred to PVDF (Invitrogen) membrane. Following the transfer, the membrane was rinsed once with TBS containing 0.5% Tween-20 (TBS-Tween) and blocked in TBS-Tween containing 5% non-fat milk for 1 h. After washing with PBS-Tween, the membrane was incubated with the primary WNV antibody (15) at 1:3000 dilutions for 1 h at 25° C. Prior to incubation with HRP conjugated-mouset IgG secondary antibody (Amersham, Life Science, Piscataway, N.J.) diluted 1:5000, the blot was washed in PBS-Tween. Following the secondary antibody incubation, the blot was washed again and treated with Super Signal Chemiluminescent Reagent (Pierce) according to the manufacturer's protocol and exposed to X-ray film. For controls, the blots were stripped and re-probed with an antibody to beta-actin (Chemicon), which was detected with a goat anti-mouse horseradish peroxidase conjugate.

WNV RNA = assay: Northern blot of WNV RNA in compound treated replicon cells; type: cell-based, West Nile virus; details: 48-hour treatment, compounds 10 μM, MPA 2.5%
Method: FIG. 6 is a picture of a Northern blot gel of compound treated WNV replicon cells. 4×10^4 cells were seeded in 24 well plates. After 24 hours, the cells were treated with DMSO (lanes 2, 3) or the non-specific inhibitors, MPA (lane 1) or the compounds […] (lane 4), 18-B3 (lane 5) or 52-F2 (lane 6). After 48 hours, total RNA were isolated, separated on denaturing agrose gels and transferred to nylon membrane. Total RNA from a non-replicon cell (Huh-7 cell) was loaded in lane 7 as negative control. The membrane was probed with [^32P]-dCTP-labeled WNV NS5 and human beta-actin. The signal was quantified using a BioRad phosphoimager and WNV RNA level was calculated using beta-actin as a reference.
To confirm that the compounds can indeed inhibit WNV RNA replication, the WNV RNA level in the replicon cells treated with compounds by Northern blot analysis. Several hit compounds, 18-B3, 275-F9, 275-D9, 52-F2 and MPA were selected to treat the BHK 26.5 cells at 10 μM. […] The “hit” compounds 18-B3 and 275-F9 reduced WNV RNA by 1.5 and 2 fold, respectively (FIG. 6, lanes 4, 5). 18-B3 is one of the nine compounds that have similar structures while 275-F9 is one from another class of four compounds (Table 3).
Total cellular RNA was extracted by using the RNEASY kit (Qiagen NV, Netherlands). Northern blot analysis was done according to the protocol of Gu et al. 2002 (8). Briefly, 5 μg total RNA was electrophoresed through a 1.0% agarose gel containing 2.2M formaldehyde, transferred to a nylon membrane and immobilized by UV cross-linking (Stratagene, La Jolla, Calif.). After pre-hybridization in 5 ml of QuickHyb (Amersham, Piscataway, N.J. GE Healthcare, Giles, UK), [2P] dCTP-labeled probe made by random primer labeling of a 2.7 kb NS5 DNA fragment and a human beta-actin DNA at 65° C. The membrane was washed twice in 2×SSC/0.1% SDS for 10 min at room temperature and twice in 0.1×SSC/0.1% SDS for 15 min at 68° C. Membranes were exposed to Molecular Imager FX phosphoimager (BioRad, Hercules, Calif.) and the radiographic signals were collected and quantitated.

luciferase enzyme = target: T1, luciferase enzyme (Photinus pyralis, UniProt P08659); assay: in vitro luciferase enzyme assay with cell lysates; type: biochemical; details: lysate of WNV replicon cell, 30 minutes incubation, up to 10 μM
T1 construct: expressed in transfected cells; host or cells: BHK 26.5 (BHK cells harbouring the WNV subgenomic replicon with the Luc gene); used as cell lysate
Method: In two separate experiments, compounds were either tested with 3, 5, 10 μM or only 10 μM concentrations. The luciferase enzyme cell lysates were incubated with the indicated compounds for 30 minutes before luciferase substrate was added and the luminescence was measured. 1% DMSO was used as controls.
Although the initial HTS and the repeat assays have identified a number of compounds capable of reducing the luciferase activity produced in the WNV replicon BHK 26.5 cell line. It is conceivable that some of these inhibitors could have inhibited the luciferase enzyme itself rather than the WNV viral replication. To rule out this possibility, the identified compounds were tested in an in vitro luciferase enzyme assay by incubating the compounds with cell lysates prepared from the WNV replicon cell. […] The inhibition was not observed when the compounds were added immediately before luminescence reading, but after a 30-minute incubation of […] and the cell lysate, indicating a direct inhibition of the luciferase enzyme by the compounds.

T1 sequence (P08659 whole entry): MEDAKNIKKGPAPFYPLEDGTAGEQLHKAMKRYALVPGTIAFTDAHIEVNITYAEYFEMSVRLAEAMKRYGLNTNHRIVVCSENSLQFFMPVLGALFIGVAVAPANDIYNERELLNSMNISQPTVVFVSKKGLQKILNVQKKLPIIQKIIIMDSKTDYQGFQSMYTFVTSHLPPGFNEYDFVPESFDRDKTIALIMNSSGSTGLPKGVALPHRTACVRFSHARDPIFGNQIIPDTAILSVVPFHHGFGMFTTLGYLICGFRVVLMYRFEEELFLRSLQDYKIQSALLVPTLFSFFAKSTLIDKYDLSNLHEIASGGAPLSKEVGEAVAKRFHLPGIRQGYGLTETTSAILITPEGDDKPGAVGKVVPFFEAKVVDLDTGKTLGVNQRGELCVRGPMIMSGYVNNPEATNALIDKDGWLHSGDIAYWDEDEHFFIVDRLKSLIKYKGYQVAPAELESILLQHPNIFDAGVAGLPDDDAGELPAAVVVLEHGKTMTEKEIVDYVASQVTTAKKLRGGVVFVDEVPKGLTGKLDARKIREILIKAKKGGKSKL

SMILES	CC50 [1] [µM]	CC50 (BHK cells) [µM]	IC50 (WNV replicon; West Nile virus, 24 h) [µM]	Fold decrease (HTS) (WNV replicon; luciferase activity, 10 μM compound, 24 hours, BHK 26.5 cells) [Fold]	Fold decrease (Re-test) (WNV replicon; luciferase activity, re-checked at a single 10 μM concentration) [Fold]	reducing the luciferase activity of the WNV replicon cell (WNV replicon; re-synthesized compound, 24 and 48 hour incubation)	Toxicity (uM)* (BHK 26.5 replicon cells; MTT assay) [µM]	toxicity in replicon assays (BHK 26.5 replicon cells; re-synthesized compound, MTT)	IC50 (WNV; West Nile virus, BHK, read-out: IC50 in WNV infection assay, re-synthesized, three independent experiments in duplicate) [µM]	activity in the WNV infection assay (WNV; live WNV)	WNV NS3 protein level (western blot) (WNV NS3 protein)	WNV RNA reduction (WNV RNA)	luciferase enzyme activity in cell lysate (luciferase enzyme)
Cc1ccc(-c2csc(Nc3ccc(S(=O)(=O)Nc4cc(C)on4)cc3)n2)cc1 [Compound 101-G7, N-(5-Methyl-isoxazol-3-yl)-4-(4-p-tolyl-thiazol-2-ylamino)-benzenesulfonamide]	> 40	> 40	5	6	2	good activity	>10	about 80 μM	3 to 15	retained activity	–	–	–
COc1c(C)c2c(c(O)c1C/C=C(\C)CCC(=O)O)C(=O)OC2 [MPA, Mycophenolic acid, reference compound]	–	–	–	–	–	–	–	–	–	–	reduced WNV NS3 protein level	more than five fold	did not reduce the luciferase activity
